Assay results from PubChem BioAssay (NCI).
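Interpolation was linear, between the two tested concentrations surrounding the appropriate level; five concentrations were tested over 48 hours in 96-well plates. The concentration for 50% growth inhibition is given as GI50. TGI: total growth inhibition.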

Legend:
Assay in all cases: NCI anticancer screen, dose series, 48 h
CAKI-1 renal = system: CAKI-1 renal
COLO 205 colon = system: COLO 205 colon
KM12 colon = system: KM12 colon
M14 melanoma = system: M14 melanoma
OVCAR-3 ovarian = system: OVCAR-3 ovarian
OVCAR-8 ovarian = system: OVCAR-8 ovarian
SK-MEL-28 melanoma = system: SK-MEL-28 melanoma
SK-MEL-5 melanoma = system: SK-MEL-5 melanoma
SN12C renal = system: SN12C renal
UO-31 renal = system: UO-31 renal

Row | SMILES | TGI (CAKI-1 renal) [µM] | TGI (COLO 205 colon) [µM] | TGI (KM12 colon) [µM] | TGI (M14 melanoma) [µM] | TGI (OVCAR-3 ovarian) [µM] | TGI (OVCAR-8 ovarian) [µM] | TGI (SK-MEL-28 melanoma) [µM] | TGI (SK-MEL-5 melanoma) [µM] | TGI (SN12C renal) [µM] | TGI (UO-31 renal) [µM] | GI50 (CAKI-1 renal) [µM] | GI50 (COLO 205 colon) [µM] | GI50 (KM12 colon) [µM] | GI50 (M14 melanoma) [µM] | GI50 (OVCAR-3 ovarian) [µM] | GI50 (OVCAR-8 ovarian) [µM] | GI50 (SK-MEL-28 melanoma) [µM] | GI50 (SK-MEL-5 melanoma) [µM] | GI50 (SN12C renal) [µM] | GI50 (UO-31 renal) [µM]
1 | CC[C@@]12CCCN3CC[C@]4(c5cccc(OC)c5N(C(C)=O)[C@@H]4CC1)[C@H]32 | > 100 | > 100 | > 100 | > 100 | > 100 | > 100 | > 100 | > 100 | > 100 | > 100 |  |  |  |  |  |  |  |  |  | 
2 | O=C(/C=C/c1ccccc1Cl)c1ccc(Cl)c(Cl)c1 | 30.9 | > 100 | 29.7 | 33.4 | 28.7 | 33 | 40.4 | 36.1 | > 100 | 30.9 |  |  |  |  |  |  |  |  |  | 
3 | CC(=O)OC1COC(n2c(=S)n(-c3ccc(C)cc3)c(=O)c3ccccc32)C(OC(C)=O)C1OC(C)=O (stereo not given) | > 100 | > 100 | > 100 | > 100 | > 100 | > 100 | > 100 | > 100 | > 100 | > 100 |  |  |  |  |  |  |  |  |  | 
4 | C=C(CNCCO)[C@@H]1CC[C@]2(CO)CC[C@]3(C)[C@H](CC[C@@H]4[C@@]5(C)CCC(N)C(C)(C)[C@@H]5CC[C@]43C)[C@@H]12 (stereo not given in full) | 18.1 | 3.35 | 10.1 | 3.97 | 20.7 | 3.74 | 3.6 | 3.18 | 4.07 | 26.8 | 4.86 | 1.73 | 3.4 | 2.05 | 7.71 | 1.82 | 1.96 | 1.73 | 1.97 | 13.2
5 | COc1ccc2nc3cc(Cl)ccc3c(Sc3ccccc3[N+](=O)[O-])c2c1 | > 100 | 37.7 | > 100 | > 100 | > 100 | > 100 | > 100 | > 100 | 75.7 | > 100 |  |  |  |  |  |  |  |  |  | 
6 | NS(=O)(=O)c1ccccc1C(=O)N/N=C(\c1nc2ccc([N+](=O)[O-])cc2[nH]c1=O)C(O)c1ccc([N+](=O)[O-])cc1 (stereo not given) | > 100 | > 100 | > 100 | > 100 | > 100 | > 100 | > 100 | > 100 | > 100 | > 100 |  |  |  |  |  |  |  |  |  | 
7 | CC1=C(C(=O)Nc2ccc(F)c(Cl)c2)C(c2ccc(Cl)cc2)NC(=O)N1 (stereo not given) | 71.2 | > 100 | 52.1 | 33.6 | 38.4 | 36.8 | 32.6 | 30.4 | 32.2 | 30.1 | 21 | 37.5 | 24.2 | 16.5 | 17.8 | 18.4 | 16.5 | 15.5 | 17.8 | 15.1
8 | O=c1n(CC2CO2)c(=O)n(CC2CO2)n1CC1CO1 (stereo not given) | 21.7 | 41.5 | > 100 | > 100 | > 55.5 | > 100 | > 100 | > 79.9 | > 100 | > 76.2 | 2.22 | 6.04 | 31.5 | 21.9 | 13.7 | 27.2 | > 53.1 | 14.7 | 9.03 | 7.86
9 | O=C1/C(=C/c2ccc([N+](=O)[O-])cc2)COc2ccc(O)c(O)c21 | 2.54 | 3.69 | 3.47 | 3.3 | 2.14 | 9.93 | 4.61 | 4.61 | 4.19 | 2.23 | 1.27 | 1.47 | 1.58 | 1.54 | 0.79 | 2.29 | 2.1 | 2.12 | 1.54 | 0.696
10 | NC(CCc1nc(-c2ccc(Cl)cc2)cs1)C(=O)O (stereo not given) | > 100 | > 100 | > 100 | > 100 | > 100 | > 100 | > 100 | > 100 | > 100 | > 100 |  |  |  |  |  |  |  |  |  | 
11 | C=CCc1cc(OC)c2c(c1)C(O)CC(c1ccc(OC)c(OC)c1)O2 (stereo not given) | > 100 | > 100 | > 100 | > 100 | > 100 | > 100 | > 100 | > 100 | > 100 | > 100 |  |  |  |  |  |  |  |  |  | 
12 | COc1cc2c(c(OC)c1O)C(=O)C(OC)C(c1ccc(O)c(O)c1)O2 (stereo not given) | > 100 | > 82.8 | > 100 | > 100 | > 32.7 | > 100 | > 100 | 3.26 | > 100 | > 100 | 0.336 | 23.5 | 0.515 | 0.155 | 0.343 | 0.484 | 10.1 | 0.757 | 0.426 | 0.53
13 | O=C1C2=C(SCCS2)C(=O)c2ccccc21 | 3.32 | 2.96 | 3.18 | 3.33 | 3.08 | 3.04 | 3.26 | 3.09 | 3.39 | 3.37 |  |  |  |  |  |  |  |  |  | 
14 | CC(C)=CCCc1c(C)ccc2c1C(=O)C(=O)C(C(C)C)=C2 | 7.79 | > 22 | > 22 | 7.95 | 7.36 | 7 | 6.92 | > 22 | > 22 | > 22 |  |  |  |  |  |  |  |  |  | 
15 | CCCCCCCCSC1=CC(=O)c2nc3ccccc3c3ccnc1c23 | > 100 | > 100 | > 100 | > 100 | > 100 | > 100 | > 100 | > 100 | > 100 | > 100 | 59.8 | > 100 | > 100 | > 100 | 19 | > 100 | 42.7 | 98.8 | 14 | 49.5
16 | CC(=O)N1[C@H](C(=O)O)CS[C@H]1c1ccncc1 | > 100 | > 100 | > 100 | > 100 | > 100 | > 100 | > 100 | > 100 | > 100 | > 100 |  |  |  |  |  |  |  |  |  | 
